Assay results reported in patent publication US20050002947A1, “In vitro bioassay employing laboratory-cultured larvae of strongyloides stercoralis” (University of the West Indies, priority 2003, published 2005).

What was measured:
[1] = system: S. stercoralis larvae; assay: Larval tolerance to methanol (solvent); format: cell-based, Strongyloides stercoralis; details: aqueous solutions containing methanol; cumulative percentage mortality
Procedure: Active constituents of plants are typically extracted in organic solvents such as methanol. […] Studies of methanol toxicity for S. stercoralis indicate that a methanol concentration exceeding 5 μg/100 mL LNS (>50 times that detected in plant extracts using NMR analyses) is required to exert any significant effect on larval mortality.

[2] = system: S. stercoralis larvae; assay: Larval tolerance to emulsifiers; format: cell-based
Description: Triton® X-100 (octylphenoxy polyethoxyethanol) is recommended for use as an emulsifier, where necessary. A concentration of 1-4% in 0.01% ELNS had no effect on larval mobility or mortality.
Other suitable surfactants for dispersing plant extracts can be developed by routine testing according to the described procedures.

[3] = system: S. stercoralis larvae; assay: Dye exclusion test using eosin to tell live from killed larvae; format: cell-based; details: for Percentage of S. stercoralis larvae stained using eosin in vitro: n~100
Procedure: Dye exclusion tests have been used successfully to indicate viability in parasitic platyhelminths, and similar testing can be applied to S. stercoralis larvae. Use of 0.01% v/v eosin in LNS (ELNS) in a dye exclusion test indicated death of larvae in less than 10 minutes, and 0.01-0.03% ELNS had no effect on healthy individuals. The larvae typically survive for more than 100 hours in ELNS. Accordingly, LNS is a preferred medium in which to maintain larvae harvested from multiplication in coproculture and ELNS is a preferred medium for evaluating the effects of physiologically active materials, such as candidate anthelmintic materials, on the larvae. However, the skilled practitioner will recognize that any medium in which the larvae can be maintained for a convenient period of time, and any appropriate vital staining dye, can be used in the method of the invention.
The results of a comparative test to establish the ability of a dye exclusion procedure using eosin to discriminate between live and killed larvae are presented in Table 1 below. FIG. 1 is a photomicrograph of a microscopic inspection field showing a number of larvae of S. stercoralis after exposure to an anthelmintic agent.

CO [methanol]
Methanol concentration required to exert any significant effect on larval mortality [1]: exceeding 5 μg/100 mL LNS

octylphenoxy polyethoxyethanol [Triton® X-100]
Effect on larval mobility ([2]; 1-4% in 0.01% ELNS): no effect
Effect on larval mortality ([2]; 1-4% in 0.01% ELNS): no effect

O=C1OC2(c3ccccc31)c1cc(Br)c(O)c(Br)c1Oc1c2cc(Br)c(O)c1Br [eosin]
Time in which the dye exclusion test indicated death of larvae ([3]; 0.01% v/v eosin in LNS): less than 10 minutes
Percentage of S. stercoralis larvae stained using eosin in vitro ([3]; heat killed larvae (60° C./30 min), eosin 0.01% (w/v), 0 min): 0%
Percentage of S. stercoralis larvae stained using eosin in vitro ([3]; heat killed larvae (60° C./30 min), eosin 0.01% (w/v), 10 min): 100%
Percentage of S. stercoralis larvae stained using eosin in vitro ([3]; heat killed larvae (60° C./30 min), eosin 0.03% (w/v), 0 min): 0%
Percentage of S. stercoralis larvae stained using eosin in vitro ([3]; heat killed larvae (60° C./30 min), eosin 0.03% (w/v), 10 min): 100%
Percentage of S. stercoralis larvae stained using eosin in vitro ([3]; living larvae, eosin 0.01% (w/v), 0 min): 0%
Percentage of S. stercoralis larvae stained using eosin in vitro ([3]; living larvae, eosin 0.01% (w/v), 10 min): 1%
Percentage of S. stercoralis larvae stained using eosin in vitro ([3]; living larvae, eosin 0.01% (w/v), 20 min): 1%
Percentage of S. stercoralis larvae stained using eosin in vitro ([3]; living larvae, eosin 0.01% (w/v), 30 min): 2%
Percentage of S. stercoralis larvae stained using eosin in vitro ([3]; living larvae, eosin 0.01% (w/v), 40 min): 2%
Percentage of S. stercoralis larvae stained using eosin in vitro ([3]; living larvae, eosin 0.01% (w/v), 50 min): 2%
Percentage of S. stercoralis larvae stained using eosin in vitro ([3]; living larvae, eosin 0.01% (w/v), 60 min): 2%
Percentage of S. stercoralis larvae stained using eosin in vitro ([3]; living larvae, eosin 0.01% (w/v), column headed only "(min)", after 60): 2%
Percentage of S. stercoralis larvae stained using eosin in vitro ([3]; living larvae, eosin 0.03% (w/v), 0 min): 0%
Percentage of S. stercoralis larvae stained using eosin in vitro ([3]; living larvae, eosin 0.03% (w/v), 10 min): 1%
Percentage of S. stercoralis larvae stained using eosin in vitro ([3]; living larvae, eosin 0.03% (w/v), 20 min): 1%
Percentage of S. stercoralis larvae stained using eosin in vitro ([3]; living larvae, eosin 0.03% (w/v), 30 min): 2%
Percentage of S. stercoralis larvae stained using eosin in vitro ([3]; living larvae, eosin 0.03% (w/v), 40 min): 2%
Percentage of S. stercoralis larvae stained using eosin in vitro ([3]; living larvae, eosin 0.03% (w/v), 50 min): 2%
Percentage of S. stercoralis larvae stained using eosin in vitro ([3]; living larvae, eosin 0.03% (w/v), 60 min): 2%
Percentage of S. stercoralis larvae stained using eosin in vitro ([3]; living larvae, eosin 0.03% (w/v), column headed only "(min)", after 60): 3%

Tween® 20
Toxicity to S. stercoralis larvae ([2]; 0.1-0.4% in 0.1% ELNS): toxic
